Assay results: US9610287B2 (H. Lundbeck A/S, priority 2011, dated 2017)

Key:
[1] = Elimination half life in human; conditions: in vivo
[2] = system: rats; conditions: fumarate salt; cited from earlier work
[3] = system: rats; test: Condition avoidance response (CAR) model in rats; assay type: in vivo, rat; conditions: at very low levels of D2 receptor occupancy
[4] = target: D1 receptor (Homo sapiens, UniProt P21728); test: PET study in healthy subjects, D1 receptor occupancy (11C-SCH23390); assay type: in vivo; conditions: read-out: D1 receptor occupancy in putamen
D1 receptor, sequence (P21728 whole entry): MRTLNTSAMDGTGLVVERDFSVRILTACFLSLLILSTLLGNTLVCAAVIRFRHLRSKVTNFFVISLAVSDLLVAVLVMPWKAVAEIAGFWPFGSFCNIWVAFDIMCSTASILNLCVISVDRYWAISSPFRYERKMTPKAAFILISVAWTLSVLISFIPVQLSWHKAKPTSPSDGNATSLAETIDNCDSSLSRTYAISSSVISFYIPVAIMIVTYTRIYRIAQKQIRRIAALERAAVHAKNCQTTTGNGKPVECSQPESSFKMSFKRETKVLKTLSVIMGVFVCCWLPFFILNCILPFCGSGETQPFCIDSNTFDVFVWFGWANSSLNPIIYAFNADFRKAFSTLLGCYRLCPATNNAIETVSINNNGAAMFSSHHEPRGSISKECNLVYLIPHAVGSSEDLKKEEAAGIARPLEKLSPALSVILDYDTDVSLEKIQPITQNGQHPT

[5] = target: T1, D2 receptors (Rattus norvegicus, UniProt P61169); test: In vivo binding to D2 receptors in rat brain ([3H]-raclopride); conditions: sc, subcutaneous
T1 construct: the brain quickly removed and striatum and cerebellum dissected out and homogenized; from tissue; host or cells: striatum of male Wistar rats (in vivo)
T1 sequence (P61169 whole entry): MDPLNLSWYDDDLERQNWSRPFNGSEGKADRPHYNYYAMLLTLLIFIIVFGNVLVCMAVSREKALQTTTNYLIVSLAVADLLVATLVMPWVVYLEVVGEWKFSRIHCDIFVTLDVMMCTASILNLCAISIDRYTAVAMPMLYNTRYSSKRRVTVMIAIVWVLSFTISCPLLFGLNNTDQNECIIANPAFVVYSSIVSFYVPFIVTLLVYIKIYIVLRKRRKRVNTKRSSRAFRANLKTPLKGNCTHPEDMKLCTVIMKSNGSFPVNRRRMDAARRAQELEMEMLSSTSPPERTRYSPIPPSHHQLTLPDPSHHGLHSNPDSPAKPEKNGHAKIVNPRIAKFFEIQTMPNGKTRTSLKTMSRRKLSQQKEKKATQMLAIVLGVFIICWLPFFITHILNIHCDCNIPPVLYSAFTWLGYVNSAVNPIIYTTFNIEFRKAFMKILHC
Procedure: Description of In Vivo Binding to D2 Receptors in Rat Brain
In vivo binding is carried out according to Andersen et al (Eur J Pharmacol, (1987) 144:1-6) with a few modifications (Kapur S. et al, J Pharm Exp Ther, 2003, 305, 625-631). Briefly, 6 rats (male Wistar, 180-200 g) are treated with 20 mg/kg test compound subcutaneous 30 minutes before receiving 9.4 micro Ci [^3H]-raclopride intravenous via the tail vein.
15 minutes after the injection of the radio ligand the animals are killed by cervical dislocation, the brain quickly removed and striatum and cerebellum dissected out and homogenized in 5 mL (cerebellum in 20 mL) ice-cold buffer (50 mM K2PO4, pH 7.4). 1.0 mL of the homogenate is filtered through 0.1% PEI—soaked Whatman GF/C filters. This is completed within 60 seconds subsequent to the decapitation. Filters are washed 2 times with 5 mL ice-cold buffer and counted in a scintillation counter. A group of vehicle treated animals is used to determine [^3H]-raclopride total binding in striatum and non-specific binding in cerebellum. The homogenate is measured for protein content by the BCA protein determination assay (Smith P. K. et al (1985) Anal. Biochem., 150: 6-85).

[6] = system: schizophrenic patients; test: Randomized, double-blind study of daily vs weekly dosing in schizophrenic patients, PANSS Total Score; assay type: in vivo, human
Text: The study is a randomized, double-blind, parallel-group, exploratory study of safety, tolerability and PK of daily dosing vs weekly dosing of Compound (I) in schizophrenic patients.
The open-label period (OL_Period) is the period from start of open-label treatment (baseline) until stop of open-label treatment (at OL-withdrawal or randomisation to double-blind treatment, whichever occurs first).
The double-blind period (DB_Period) is the period from start of double-blind treatment (randomisation) until stop of double-blind treatment (at DB-withdrawal or completion, whichever occurs first), that is, the entire double-blind period including the PBO_Period.
The IMP dosing period (IMP_Period) is the period from start of open-label treatment (baseline) until stop of double-blind treatment (at withdrawal or completion, whichever occurs first), that is, the OL_Period plus the DB_Period.
A study was conducted with a study design as described in Example 2.

[7] = target: D2 receptor (Homo sapiens, UniProt P14416); test: PET study in healthy subjects, D2 receptor occupancy (11C-raclopride); assay type: in vivo; conditions: read-out: D2 receptor occupancy in the putamen
D2 receptor, sequence (P14416 whole entry): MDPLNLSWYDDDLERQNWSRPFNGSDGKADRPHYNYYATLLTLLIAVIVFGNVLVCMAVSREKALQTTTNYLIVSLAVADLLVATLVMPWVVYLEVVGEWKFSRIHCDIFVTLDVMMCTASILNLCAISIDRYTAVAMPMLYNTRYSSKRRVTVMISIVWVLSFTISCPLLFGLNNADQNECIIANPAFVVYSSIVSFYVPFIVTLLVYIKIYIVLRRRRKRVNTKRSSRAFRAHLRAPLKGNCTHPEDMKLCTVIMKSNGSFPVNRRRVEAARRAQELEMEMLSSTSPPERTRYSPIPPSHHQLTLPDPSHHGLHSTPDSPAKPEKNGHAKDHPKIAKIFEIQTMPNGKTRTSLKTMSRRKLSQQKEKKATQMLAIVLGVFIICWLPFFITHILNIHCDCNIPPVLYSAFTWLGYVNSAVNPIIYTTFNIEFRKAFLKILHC

[8] = 2 mg/day given daily for 18 days
[9] = 10 mg/day given daily for 18 days

## CC1(C)CN([C@@H]2C[C@@H](c3ccccc3)c3ccc(Cl)cc32)CCN1 (relative stereo) [Compound (II), trans-1(6-chloro-3-phenyl-indan-1-yl)-3,3-dimethyl-piperazine]
[1]
  half-life: 300 to 400 h

## CN1CCN([C@@H]2C[C@@H](c3ccccc3)c3ccc(Cl)cc32)CC1(C)C [Compound (I), 4-((1R,3S)-6-chloro-3-phenyl-indan-1-yl)-1,2,2-trimethyl-piperazine]
[1]
  half-life: ~150 h
[2]
  induction of catalepsy: does not induce catalepsy
[3]
  antipsychotic activity in CAR model: possesses antipsychotic activity
[4]; [8]
  receptor occupancy at 2 mg: 32%
[4]; [9]
  receptor occupancy at 10 mg: 69%
[5]
  ED50: 4.1 mg/kg
[6]; 10 mg/day, study day 29
  Mean (change in PANSS) Total Score from randomization: 1.55
[6]; 10 mg/day, study day 36
  Mean (change in PANSS) Total Score from randomization: −1.00
[6]; 10 mg/day, study day 43
  Mean (change in PANSS) Total Score from randomization: −2.50
[6]; 10 mg/day, study day 50
  Mean (change in PANSS) Total Score from randomization: −3.50
[6]; 10 mg/day, study day 57
  Mean (change in PANSS) Total Score from randomization: −5.80
[6]; 20 mg/week, study day 29
  Mean (change in PANSS) Total Score from randomization: 0.00
[6]; 20 mg/week, study day 36
  Mean (change in PANSS) Total Score from randomization: 0.80
[6]; 20 mg/week, study day 43
  Mean (change in PANSS) Total Score from randomization: −2.00
[6]; 20 mg/week, study day 50
  Mean (change in PANSS) Total Score from randomization: −1.22
[6]; 20 mg/week, study day 57
  Mean (change in PANSS) Total Score from randomization: −4.38
[6]; 30 mg/week, study day 29
  Mean (change in PANSS) Total Score from randomization: 1.09
[6]; 30 mg/week, study day 36
  Mean (change in PANSS) Total Score from randomization: 0.50
[6]; 30 mg/week, study day 43
  Mean (change in PANSS) Total Score from randomization: 4.00
[6]; 30 mg/week, study day 50
  Mean (change in PANSS) Total Score from randomization: −4.14
[6]; 30 mg/week, study day 57
  Mean (change in PANSS) Total Score from randomization: −5.43
[6]; 45 mg/week, study day 29
  Mean (change in PANSS) Total Score from randomization: 0.40
[6]; 45 mg/week, study day 36
  Mean (change in PANSS) Total Score from randomization: −3.50
[6]; 45 mg/week, study day 43
  Mean (change in PANSS) Total Score from randomization: −5.70
[6]; 45 mg/week, study day 50
  Mean (change in PANSS) Total Score from randomization: −8.00
[6]; 45 mg/week, study day 57
  Mean (change in PANSS) Total Score from randomization: −6.88
[6]; once weekly, 20 mg/week to 45 mg/week, in particular 30 and 45 mg/week
  reduction in PANSS Total Score compared with daily dose of 10 mg/day: as effective in reduction in PANSS Total Score as a daily dose of 10 mg/day
[6]; once weekly, between about 30 mg/week and about 45 mg/week
  reduction of PANSS Total Score compared with daily dose of 10 mg/day: at least to the same extend as a daily dose of 10 mg/day
[7]; [8]
  receptor occupancy at 2 mg: 11%
[7]; [9]
  receptor occupancy at 10 mg: 43%
